Laboratory results as given in patent US12558428B2, “Heterobifunctional compounds and their use in treating disease” (Halda Therapeutics OpCo, Inc., priority 2024, dated 2026).

Test system: T-Rex 293 cells having increased expression of estrogen receptor alpha protein
Assay: Cellular growth inhibition assay, T-Rex 293 cells, (+) doxycycline
Format: cell-based
Conditions: T-REx-293, 72 h, Table 7-A; T-Rex 293 cells with doxycycline (increased ERα expression); 72 hours; CellTiter-Glo; read-out: (+) Dox GI50
Method in brief: (§1)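 Cells of an inducible ERα-expressing T-Rex 293 clone are seeded in charcoal-dextran FBS medium with or without 3 ng/mL doxycycline, then treated after 24 h with compound dilutions (0.5% DMSO) for 72 h. Growth inhibition is measured by CellTiter-Glo luminescence and expressed as GI50.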

SMILES | GI50 [nM]
Cc1sc2c(c1C)C(c1ccc(N3CC(O)(CN4CCN(CC5CN(c6ccc([C@@H]7c8ccc(O)cc8CC[C@@H]7c7ccccc7)cc6)C5)CC4)C3)cc1)=N[C@@H](Cc1ncco1)c1nnc(C)n1-2 [III-181] | < 50
Cc1sc2c(c1C)C(c1ccc(N3CCC(O)(CN4CCN(c5ccc([C@@H]6c7ccc(O)cc7CC[C@@H]6c6ccc(F)cc6F)cc5)CC4)CC3)cc1)=N[C@@H](C)c1nnc(C)n1-2 [III-182] | < 50
Cc1sc2c(c1C)C(c1ccc(N3CCC(O)(CN4CCN(c5ccc([C@H]6c7ccc(O)cc7CC[C@H]6c6ccc(F)cc6F)cc5)CC4)CC3)cc1)=N[C@@H](C)c1nnc(C)n1-2 [III-183] | < 50
Cc1sc2c(c1C)C(c1ccc(N3CCC(O)(CN4CCN(c5ccc([C@H]6c7ccc(O)cc7CC[C@H]6c6ccc(F)cc6)cc5)CC4)CC3)cc1)=N[C@@H](C)c1nnc(C)n1-2 [III-184] | < 50
Cc1sc2c(c1C)C(c1ccc(N3CCC(O)(CN4CCN(c5ccc([C@@H]6c7ccc(O)cc7CC[C@@H]6c6ccc(F)cc6)cc5)CC4)CC3)cc1)=N[C@@H](C)c1nnc(C)n1-2 [III-185] | < 50
Cc1sc2c(c1C)C(c1ccc(N3CCC(O)(CN4CCN(c5cc(F)c([C@@H]6c7ccc(O)cc7CC[C@@H]6c6ccccc6)c(F)c5)CC4)CC3)cc1)=N[C@@H](C)c1nnc(C)n1-2 [III-186] | < 50
Cc1sc2c(c1C)C(c1ccc(N3CCC(O)(CN4CCN(c5cc(F)c([C@H]6c7ccc(O)cc7CC[C@H]6c6ccccc6)c(F)c5)CC4)CC3)cc1)=N[C@@H](C)c1nnc(C)n1-2 [III-187] | < 50
Cc1sc2c(c1C)C(c1ccc(N3CCC(O)(CN4CCN(c5ccc([C@@H]6c7ccc(C(=O)O)cc7CC[C@@H]6c6ccccc6)cc5)CC4)CC3)cc1)=N[C@@H](C)c1nnc(C)n1-2 [III-188] | < 50
Cc1sc2c(c1C)C(c1ccc(N3CCC(O)(CN4CCN(c5ccc([C@H]6c7ccc(C(=O)O)cc7CC[C@H]6c6ccccc6)cc5)CC4)CC3)cc1)=N[C@@H](C)c1nnc(C)n1-2 [III-189] | > 2500

Test system: T-Rex 293 cells lacking increased expression of estrogen receptor alpha protein
Assay: Cellular growth inhibition assay, T-Rex 293 cells, (−) doxycycline
Format: cell-based
Conditions: T-REx-293, 72 h, Table 7-A; T-Rex 293 cells without doxycycline (lacking increased ERα expression); 72 hours; CellTiter-Glo; read-out: (−) Dox GI50
Method in brief: as §1

SMILES | GI50 [nM]
Cc1sc2c(c1C)C(c1ccc(N3CC(O)(CN4CCN(CC5CN(c6ccc([C@@H]7c8ccc(O)cc8CC[C@@H]7c7ccccc7)cc6)C5)CC4)C3)cc1)=N[C@@H](Cc1ncco1)c1nnc(C)n1-2 [III-181] | 50 to 500
Cc1sc2c(c1C)C(c1ccc(N3CCC(O)(CN4CCN(c5ccc([C@@H]6c7ccc(O)cc7CC[C@@H]6c6ccc(F)cc6F)cc5)CC4)CC3)cc1)=N[C@@H](C)c1nnc(C)n1-2 [III-182] | 500 to 2500
Cc1sc2c(c1C)C(c1ccc(N3CCC(O)(CN4CCN(c5ccc([C@H]6c7ccc(O)cc7CC[C@H]6c6ccc(F)cc6F)cc5)CC4)CC3)cc1)=N[C@@H](C)c1nnc(C)n1-2 [III-183] | 500 to 2500
Cc1sc2c(c1C)C(c1ccc(N3CCC(O)(CN4CCN(c5ccc([C@H]6c7ccc(O)cc7CC[C@H]6c6ccc(F)cc6)cc5)CC4)CC3)cc1)=N[C@@H](C)c1nnc(C)n1-2 [III-184] | 50 to 500
Cc1sc2c(c1C)C(c1ccc(N3CCC(O)(CN4CCN(c5ccc([C@@H]6c7ccc(O)cc7CC[C@@H]6c6ccc(F)cc6)cc5)CC4)CC3)cc1)=N[C@@H](C)c1nnc(C)n1-2 [III-185] | 500 to 2500
Cc1sc2c(c1C)C(c1ccc(N3CCC(O)(CN4CCN(c5cc(F)c([C@@H]6c7ccc(O)cc7CC[C@@H]6c6ccccc6)c(F)c5)CC4)CC3)cc1)=N[C@@H](C)c1nnc(C)n1-2 [III-186] | 500 to 2500
Cc1sc2c(c1C)C(c1ccc(N3CCC(O)(CN4CCN(c5cc(F)c([C@H]6c7ccc(O)cc7CC[C@H]6c6ccccc6)c(F)c5)CC4)CC3)cc1)=N[C@@H](C)c1nnc(C)n1-2 [III-187] | 50 to 500
Cc1sc2c(c1C)C(c1ccc(N3CCC(O)(CN4CCN(c5ccc([C@@H]6c7ccc(C(=O)O)cc7CC[C@@H]6c6ccccc6)cc5)CC4)CC3)cc1)=N[C@@H](C)c1nnc(C)n1-2 [III-188] | 50 to 500
Cc1sc2c(c1C)C(c1ccc(N3CCC(O)(CN4CCN(c5ccc([C@H]6c7ccc(C(=O)O)cc7CC[C@H]6c6ccccc6)cc5)CC4)CC3)cc1)=N[C@@H](C)c1nnc(C)n1-2 [III-189] | > 2500

Test system: MCF7 cells (ATCC #HTB-22)
Assay: Cellular growth inhibition assay, MCF7 cells purchased from ATCC
Format: cell-based
Conditions: Homo sapiens, MCF7, 144 h, Table 8-A; MCF7 cells purchased from ATCC; six days; CellTiter-Glo; read-out: GI50
Method in brief: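 GI50 values come from a four-parameter fit of CellTiter-Glo 2.0 luminescence after six days of compound exposure at 37° C. Seeding density depended on the source: 225 cells/well for ECACC MCF7, 1,500 for ATCC. Medium was RPMI 1640 with 10% FBS and 0.2 U/ml insulin.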

SMILES | GI50 [nM]
Cc1sc2c(c1C)C(c1ccc(N3CC(O)(CN4CCN(CC5CN(c6ccc([C@@H]7c8ccc(O)cc8CC[C@@H]7c7ccccc7)cc6)C5)CC4)C3)cc1)=N[C@@H](Cc1ncco1)c1nnc(C)n1-2 [III-181] | < 50
Cc1sc2c(c1C)C(c1ccc(N3CCC(O)(CN4CCN(c5ccc([C@@H]6c7ccc(O)cc7CC[C@@H]6c6ccc(F)cc6F)cc5)CC4)CC3)cc1)=N[C@@H](C)c1nnc(C)n1-2 [III-182] | 50 to 500
Cc1sc2c(c1C)C(c1ccc(N3CCC(O)(CN4CCN(c5ccc([C@H]6c7ccc(O)cc7CC[C@H]6c6ccc(F)cc6F)cc5)CC4)CC3)cc1)=N[C@@H](C)c1nnc(C)n1-2 [III-183] | 50 to 500
Cc1sc2c(c1C)C(c1ccc(N3CCC(O)(CN4CCN(c5ccc([C@H]6c7ccc(O)cc7CC[C@H]6c6ccc(F)cc6)cc5)CC4)CC3)cc1)=N[C@@H](C)c1nnc(C)n1-2 [III-184] | 50 to 500
Cc1sc2c(c1C)C(c1ccc(N3CCC(O)(CN4CCN(c5ccc([C@@H]6c7ccc(O)cc7CC[C@@H]6c6ccc(F)cc6)cc5)CC4)CC3)cc1)=N[C@@H](C)c1nnc(C)n1-2 [III-185] | < 50
Cc1sc2c(c1C)C(c1ccc(N3CCC(O)(CN4CCN(c5cc(F)c([C@@H]6c7ccc(O)cc7CC[C@@H]6c6ccccc6)c(F)c5)CC4)CC3)cc1)=N[C@@H](C)c1nnc(C)n1-2 [III-186] | < 50
Cc1sc2c(c1C)C(c1ccc(N3CCC(O)(CN4CCN(c5cc(F)c([C@H]6c7ccc(O)cc7CC[C@H]6c6ccccc6)c(F)c5)CC4)CC3)cc1)=N[C@@H](C)c1nnc(C)n1-2 [III-187] | 50 to 500
Cc1sc2c(c1C)C(c1ccc(N3CCC(O)(CN4CCN(c5ccc([C@@H]6c7ccc(C(=O)O)cc7CC[C@@H]6c6ccccc6)cc5)CC4)CC3)cc1)=N[C@@H](C)c1nnc(C)n1-2 [III-188] | 50 to 500
Cc1sc2c(c1C)C(c1ccc(N3CCC(O)(CN4CCN(c5ccc([C@H]6c7ccc(C(=O)O)cc7CC[C@H]6c6ccccc6)cc5)CC4)CC3)cc1)=N[C@@H](C)c1nnc(C)n1-2 [III-189] | 50 to 500
